Results as given in the supplement of paper PMC11061612.

How the values were obtained:
Test in all cases: combination Emax (second highest fraction inhibited in the dose matrix, 72 h); higher = more inhibition; extreme values may be limits of the assay
[1] = tested on: RH-1 (Ewing's Sarcoma)
How it was run: (§1)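 After 24 hours at 37°C and 5% CO2 in 1536-well plates, cells in DMEM/F12 or RPMI plus 10% FBS received two-drug dose matrices for 72 hours. Viability came from CellTiter-Glo 2.0 luminescence and was scaled as inhibition, anchored at 0 by vehicle wells and at 1 by blank wells. Combination Emax is taken as the second-highest inhibition in the matrix, and Bliss excess as the observed combination effect less EA + EB − EA·EB, with EA and EB the single-agent effects.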

[2] = tested on: MFH-ino (Other Solid Carcinomas)
How it was run: as §1

[3] = tested on: NALM-6 (B-Lymphoblastic Leukemia)
How it was run: as §1

[4] = tested on: KARPAS-620 (Plasma Cell Myeloma)
How it was run: as §1

[5] = tested on: EM-2 (Chronic Myelogenous Leukemia)
How it was run: as §1

[6] = tested on: JiyoyeP-2003 (Burkitt's Lymphoma)
How it was run: as §1

[7] = tested on: CFPAC-1 (Pancreatic Carcinoma)
How it was run: as §1

[8] = tested on: LU-99A (Non-Small Cell Lung Carcinoma)
How it was run: as §1

[9] = tested on: G-292-Clone-A141B1 (Osteosarcoma)
How it was run: as §1

[10] = tested on: KARPAS-1106P (B-Cell Non-Hodgkin's Lymphoma)
How it was run: as §1

[11] = tested on: SUIT-2 (Pancreatic Carcinoma)
How it was run: as §1

[12] = tested on: DSH1 (Bladder Carcinoma)
How it was run: as §1

[13] = tested on: C3A (Hepatocellular Carcinoma)
How it was run: as §1

[14] = tested on: DB (B-Cell Non-Hodgkin's Lymphoma)
How it was run: as §1

[15] = tested on: SW1783 (Low Grade Glioma)
How it was run: as §1

[16] = tested on: SK-N-FI (Neuroblastoma)
How it was run: as §1

[17] = tested on: SW756 (Cervical Carcinoma)
How it was run: as §1

[18] = tested on: NCI-H2369 (Mesothelioma)
How it was run: as §1

[19] = tested on: HCC2157 (Breast Carcinoma)
How it was run: as §1

[20] = tested on: KATOIII (Gastric Carcinoma)
How it was run: as §1

SMILES | combination Emax [1] | combination Emax [2] | combination Emax [3] | combination Emax [4] | combination Emax [5] | combination Emax [6] | combination Emax [7] | combination Emax [8] | combination Emax [9] | combination Emax [10] | combination Emax [11] | combination Emax [12] | combination Emax [13] | combination Emax [14] | combination Emax [15] | combination Emax [16] | combination Emax [17] | combination Emax [18] | combination Emax [19] | combination Emax [20]
COc1cccc(OCCCN)c1-c1cc(Nc2cnc(C#N)cn2)n[nH]1 [Prexasertib] + CN(C)CCCOc1ccc(-c2ccc3ncc4c(c3c2)n(C2CCOCC2)c(=O)n4C)cn1 [AZD0156] (first compound max 1 µM, 7x7, partner max 1 µM) | 1 | 0.394 | 0.923 | 0.896 | 0.986 | 0.987 | 0.618 | 0.823 | 0.33 | 0.919 | 0.682 | 0.82 | 0.613 | 0.771 | 0.445 | 0.908 | 0.379 | 0.29 | 0.976 | 0.522
COc1cccc(OCCCN)c1-c1cc(Nc2cnc(C#N)cn2)n[nH]1 [Prexasertib] + C=CCn1c(=O)c2cnc(Nc3ccc(N4CCN(C)CC4)cc3)nc2n1-c1cccc(C(C)(C)O)n1 [AZD1775] (first compound max 1 µM, partner max 1 µM) | 1 | 0.397 | 0.934 | 0.904 | 0.986 | 0.984 | 0.692 | 0.806 | 0.32 | 0.949 | 0.707 | 0.84 | 0.674 | 0.945 | 0.549 | 0.862 | 0.445 | 0.296 | 1 | 0.55
CC1(C)CCC(CN2CCN(c3ccc(C(=O)NS(=O)(=O)c4ccc(NCC5CCOCC5)c([N+](=O)[O-])c4)c(Oc4cnc5[nH]ccc5c4)c3)CC2)=C(c2ccc(Cl)cc2)C1 [Venetoclax] + CN(C)CCCOc1ccc(-c2ccc3ncc4c(c3c2)n(C2CCOCC2)c(=O)n4C)cn1 [AZD0156] (first compound max 1 µM, 7x7, partner max 1 µM) | 0.221 | 0.171 | 0.89 | 0.989 | 0.174 | 0.189 | 0.342 | 0.16 | 0.273 | 0.552 | 0.207 | 0.156 | 0.17 | 0.971 | 0.24 | 0.217 | 0.158 | 0.194 | 0.377 | 0.154
Cn1cnc2c(F)c(Nc3ccc(Br)cc3Cl)c(C(=O)NOCCO)cc21 [Selumetinib] + C=CCn1c(=O)c2cnc(Nc3ccc(N4CCN(C)CC4)cc3)nc2n1-c1cccc(C(C)(C)O)n1 [AZD1775] (first compound max 10 µM, partner max 1 µM) | 1 | 0.345 | 0.98 | 0.849 | 0.92 | 0.947 | 0.453 | 0.62 | 0.102 | 0.782 | 0.588 | 0.503 | 0.777 | 0.793 | 0.392 | 0.69 | 0.346 | 0.276 | 0.729 | 0.451
CC1(C)CCC(CN2CCN(c3ccc(C(=O)NS(=O)(=O)c4ccc(NCC5CCOCC5)c([N+](=O)[O-])c4)c(Oc4cnc5[nH]ccc5c4)c3)CC2)=C(c2ccc(Cl)cc2)C1 [Venetoclax] + C[C@@H](Nc1cc(F)cc(F)c1)c1cc(C(=O)N(C)C)cc2c(=O)cc(N3CCOCC3)oc12 [AZD8186] (first compound max 1 µM, 7x7, partner max 3 µM) | 0.0877 | 0.0981 | 0.866 | 1 | 0.256 | 0.527 | 0.255 | 0.234 | 0.296 | 0.796 | 0.0137 | 0.282 | 0.296 | 0.943 | 0.336 | 0.243 | 0.117 | 0.107 | 0.919 | 0.142
Cc1cc2ncnn2cc1Nc1ncc2c(n1)n(C1CCOCC1)c(=O)n2C [AZD7648] + C[C@@H]1COCCN1C2=NC(=NC(=C2)C3(CC3)[S@](=N)(=O)C)C4=C5C=CNC5=NC=C4 [AZD6738] (first compound max 10 µM, 7x7, partner max 10 µM) | 0.894 | 0.499 | 0.932 | 0.539 | 0.957 | 0.929 | 0.356 | 0.681 | 0.334 | 0.756 | 0.611 | 0.736 | 0.548 | 0.54 | 0.437 | 0.71 | 0.401 | 0.25 | 0.842 | 0.407
